# Measurements published in patent US5922558A, “Methods and compositions for generating chemiluminescence with a peroxidase” (Lumigen, Inc., priority 1997, dated 1999).
# Entries after “also recorded” stand apart in the source; their conditions may differ.
# Key:
# [1] = biological target: T1, sheep anti-mouse-HRP conjugate (Armoracia rusticana, UniProt P00433); assay: Western blot assay of β-galactosidase via an HRP-labeled antibody with chemiluminescent reagent, X-ray film; settings: for Western blot result compared with reagent containing compound 5: both PVDF and nitrocellulose membranes
# T1 construct: purchased Boehringer-Mannheim
# T1 sequence (P00433 31-338 limits assumed): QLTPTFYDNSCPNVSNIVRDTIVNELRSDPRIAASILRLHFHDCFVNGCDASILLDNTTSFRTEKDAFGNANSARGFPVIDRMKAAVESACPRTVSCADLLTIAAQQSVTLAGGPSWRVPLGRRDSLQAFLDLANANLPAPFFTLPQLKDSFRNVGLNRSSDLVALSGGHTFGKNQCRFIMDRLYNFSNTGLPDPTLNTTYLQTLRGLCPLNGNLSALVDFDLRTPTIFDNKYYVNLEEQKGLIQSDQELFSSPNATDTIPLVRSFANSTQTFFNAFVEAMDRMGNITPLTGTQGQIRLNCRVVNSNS
# Text: Compositions of the present invention were used to detect and quantify a protein, β-galactosidase (β-gal) in a Western blot with an HRP-labeled antibody on a polyvinylidene difluoride (PVDF) membrane. Dilutions of β-gal containing 5000, 1000, 180, 30 and 5 pg, respectively, of protein were electrophoresed and transferred to PVDF membranes (Millipore, Bedford, Mass.). The membranes were blocked with 1% non-fat milk in T-TBS (0.05% Tween 20 in TBS; TBS is 50 mmol/L Tris-HCl, pH 7.4, 0.15 mol/L NaCl) and then reacted sequentially with a 1:1500 dilution of mouse anti-β-gal (Boehringer-Mannheim, Indianapolis) and 1:600 dilution of sheep anti-mouse-HRP conjugate (Boehringer-Mannheim). The membranes were washed in T-TBS and soaked for 3 min with a reagent comprising 0.055M tris buffer, pH 8.6 containing 0.66 mM acridan phosphate 5, 0.05 mM p-phenylphenol, 0.25 mM urea peroxide, 0.5 mM EDTA, 0.0125% Tween 20. The membranes were placed between transparent plastic sheets and exposed to X-ray film. […] The light produced led to intense emission which could be imaged for several hours.
# A Western blot assay according to the procedure in the previous example was performed using nitrocellulose membrane (Schleicher & Schuell, Keene, N.H.) as the solid phase. β-Galstandards in the range of 5000-5 pg were used. The detection reagent of the previous example permitted detection to be performed over several hours.
# [2] = biological target: T2, horseradish peroxidase (HRP) (Armoracia rusticana, UniProt P00433); assay: Chemiluminescent detection of HRP in solution with reagent composition (tris buffer, urea peroxide, p-phenylphenol, EDTA, Tween 20); assay type: biochemical
# T2 sequence (P00433 31-353): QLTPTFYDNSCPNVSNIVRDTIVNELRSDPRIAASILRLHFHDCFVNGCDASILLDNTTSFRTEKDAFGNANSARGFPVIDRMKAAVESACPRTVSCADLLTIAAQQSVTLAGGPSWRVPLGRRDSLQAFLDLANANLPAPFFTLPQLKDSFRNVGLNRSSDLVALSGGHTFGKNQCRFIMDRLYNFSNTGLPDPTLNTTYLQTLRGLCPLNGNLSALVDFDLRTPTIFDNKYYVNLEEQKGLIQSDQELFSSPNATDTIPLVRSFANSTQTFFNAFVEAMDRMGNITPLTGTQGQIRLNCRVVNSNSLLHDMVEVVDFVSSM
# Method: (§1) Reagent compositions comprising 0.055M tris buffer, pH 8.6, 0.25 mM urea peroxide, 0.05 mM p-phenylphe nol, 0.5 mM EDTA, 0.0125% Tween 20 and 3.3×10^-4 M acridan 5 were tested for production of chemiluminescence by reacting triplicate 100 μL aliquots with 10 μL of solutions of HRP in water containing between 1.4×10^-15 and 1.4×10^-19 moles of enzyme. […] The relation between chemiluminescence intensity at 15 min and amount of enzyme is depicted in FIG. 1.
# as §1, with “mM p-phenylphenol,” for “mM p-phenylphe nol,”, “acridan 13” for “acridan 5”, “intensity” for “intensity at 15 min”, “FIG. 2.” for “FIG. 1.”
# In the manner of Example 21, compositions containing each of compounds 1-4 and 6-12 and 14 were reacted with HRP at 25° C. Each produced easily measurable chemiluminescence discernable above the background measured in the absence of HRP.
# The chemiluminescence profile of acridan phosphate 5 reacted with HRP is depicted in FIG. 3. Reaction of 100 μL of the reagent composition of Example 20 with 1.4×10^-15 mol of HRP at 25° C. caused an instant rise in light emission which achieved maximum intensity in ca. 5 min.
# (§2) Reagent compositions comprising 0.01M tris buffer, pH 8.0, 0.5 mM urea peroxide, 0.1 mM p-phenylphenol, 1 mM EDTA, 0.025% Tween 20 and 5×10^-5 M acridan 37 were tested for production of chemiluminescence by reacting triplicate 100 μL aliquots with 10 μL of HRP in the range 1.4×10^-14 to 1.4×10^-19 moles. […] The relation between chemiluminescence intensity and amount of enzyme is depicted in FIG. 4.
# A reagent composition (40 μL) comprising 0.01M tris buffer, pH 8.0, 0.5 mM urea peroxide, 0.1 mM p-phenylphenol, 1 mM EDTA, 0.025% Tween 20 and 5×10^-5 M acridan 38 was reacted with 1 μL of a solution containing 1.4×10^-15 moles of HRP. […] The chemiluminescence time profile is depicted in FIG. 5.
# as §2, with “39” for “37”, “1.4×10^-15” for “1.4×10^-14”, “1.4×10^-20” for “1.4×10^-19”, “6.” for “4.”
# A reagent composition (100 μL) comprising 0.01M tris buffer, pH 8.0, 0.5 mM urea peroxide, 0.1 mM p-phenylphenol, 1 mM EDTA, 0.025% Tween 20 and 5×10^-5 M acridan 40 was reacted with 10 μL of a solution containing 1.4×10^-15 moles of HRP.
# A reagent composition (100 μL) comprising 0.01M tris buffer, pH 8.0, 0.5 mM urea peroxide, 0.1 mM p-phenylphenol, 1 mM EDTA, 0.025% Tween 20 and 5×10^-5 M acridan 50 was reacted with 2.5 μL of a solution containing 3.5×10^-16 moles of HRP. […] The chemiluminescence time profile is depicted in FIG. 7.
# Reagent compositions comprising 0.055M tris buffer, pH 8.6, 0.25 mM urea peroxide, 0.05 mM p-phenylphenol, 0.5 mM EDTA, 0.0125% Tween 20, 1 mM CTAB and 6.6×10^-4 M acridan 43 were tested for production of chemiluminescence by reacting triplicate 100 μL aliquots with 10 μL of solutions of HRP containing between 1.4×10^-15 and 1.4×10^-19 moles of HRP. The relation between chemiluminescence intensity at 15 min and amount of enzyme is depicted in FIG. 8.
# Reagent compositions comprising 0.055M tris buffer, pH 8.6, 0.25 mM urea peroxide, 0.05 mM p-phenylphenol, 0.5 mM EDTA, 0.0125% Tween 20, 1 mM CTAB and 6.6×10^-4 M compound 46 alone or with 50 μM DBA were tested for production of chemiluminescence by reacting a 100 μL aliquot with 3.5×10^-15 moles of HRP.
# peroxidase = biological target: T3, peroxidase (Armoracia rusticana, UniProt P00433); assay: Reaction with a peroxidase and a peroxide to produce chemiluminescence (general statements); assay type: biochemical; settings: with versus without CTAB
# T3 construct: isoenzyme C dominant
# T3 sequence (P00433 31-338): T1 sequence (P00433 31-338 limits assumed)
# Method: Another aspect of the present invention is the use of compounds of any of formulas I-VI in a method to produce chemiluminescence by reaction with a peroxidase. Reaction of a compound of formula I-VI with a peroxidase and a peroxide in an aqueous buffer solution produces easily detected chemiluminescence. Light intensity reaches a maximum level within minutes at room temperature when the reaction is conducted at alkaline pH. The reaction is conducted optionally in the presence of an enhancer. [drawing 15] Cationic surfactants, including quaternary ammonium salt compounds such as CTAB, are advantageous for use in increasing the level of chemiluminescence emitted when certain compounds of the present invention are reacted with a peroxidase and a peroxide.
# [3] = 0.055M tris pH 8.6, 0.25 mM urea peroxide, 0.05 mM p-phenylphenol, 3.3×10^-4 M compound, HRP 1.4×10^-15 to 1.4×10^-19 moles
# [4] = 0.01M tris pH 8.0, 0.5 mM urea peroxide, 0.1 mM p-phenylphenol, 5×10^-5 M acridan
compound,measurement,setting,value
CN1c2ccccc2C(=C(Oc2ccccc2)OP(=O)(O)O)c2ccccc21 [Compound 1],Western blot result compared with reagent containing compound 5,[1],qualitatively the same result
CN1c2ccccc2C(=C(OP(=O)(O)O)Sc2ccccc2)c2ccccc21 [Compound 5],"duration over which emission could be imaged, Western blot, PVDF membrane","[1]; 0.66 mM compound, tris pH 8.6",several hours
same,"detection of β-gal in Western blot, PVDF membrane","[1]; β-gal 5000, 1000, 180, 30 and 5 pg, 0.66 mM compound, 30 s exposure after 14 min",detection of β-gal; also recorded: detected
same,production of chemiluminescence on reaction with HRP,[2]; [3],Light production ensued upon mixing
same,time to maximum chemiluminescence intensity,"[2]; 100 μL reagent of Example 20 (0.055M tris pH 8.6, 3.3×10^-4 M acridan), 1.4×10^-15 mol HRP, 25° C.",ca. 5 min
CN1c2ccccc2C(=C(OP(=O)(O)O)Sc2ccc(Cl)cc2)c2ccccc21 [Compound 12],Western blot result compared with reagent containing compound 5,[1],qualitatively the same result
CN1c2ccccc2C(=C(OP(=O)(O)O)Sc2ccc3ccccc3c2)c2ccccc21 [Compound 13],Western blot result compared with reagent containing compound 5,[1],qualitatively the same result
same,production of chemiluminescence on reaction with HRP,[2]; [3],Light production ensued upon mixing
CCOP(=O)(OCC)OC(Oc1ccccc1)=C1c2ccccc2N(C)c2ccccc21 [Compound 37],production of chemiluminescence on reaction with HRP,[2]; [4],Light production ensued upon mixing
CCOP(=O)(OCC)OC(Sc1ccccc1)=C1c2ccccc2N(C)c2ccccc21 [Compound 38],production of chemiluminescence on reaction with HRP,[2]; [4],Light production ensued upon mixing
same,time to maximum chemiluminescence intensity,"[2]; 40 μL reagent, 0.01M tris pH 8.0, 5×10^-5 M acridan, 1.4×10^-15 moles HRP, 25° C.",1 min
CC(=O)OC(Oc1ccccc1)=C1c2ccccc2N(C)c2ccccc21 [Compound 39],production of chemiluminescence on reaction with HRP,[2]; [4],Light production ensued upon mixing
same,time to maximum chemiluminescence intensity,"[2]; 100 μL reagent, 0.01M tris pH 8.0, 5×10^-5 M acridan, HRP 1.4×10^-15 to 1.4×10^-20 moles",30 min
CC(=O)OC(Sc1ccccc1)=C1c2ccccc2N(C)c2ccccc21 [Compound 40],production of chemiluminescence on reaction with HRP,[2]; [4],Light production ensued upon mixing
same,time to maximum chemiluminescence intensity,"[2]; 100 μL reagent, 0.01M tris pH 8.0, 5×10^-5 M acridan, 1.4×10^-15 moles HRP",7 min
CC(=C(OP(=O)(O)O)Sc1ccccc1)c1ccc2cc(O)ccc2c1 [Compound 43],change of light intensity when CTAB was included in the reaction mixture,peroxidase,increased more than ten-fold
O=P(O)(O)OC(Sc1ccccc1)=C(c1ccccc1)c1ccccc1 [Compound 46],change of light intensity when CTAB was included in the reaction mixture,peroxidase,increased more than ten-fold
same,effect of triplet energy acceptor DBA on chemiluminescence,"[2]; 0.055M tris pH 8.6, 1 mM CTAB, 6.6×10^-4 M compound alone or with 50 μM DBA, 3.5×10^-15 moles HRP",enhancement of chemiluminescence
COC(Sc1ccccc1)=C1c2ccccc2N(C)c2ccccc21 [Compound 50],production of chemiluminescence on reaction with HRP,[2]; [4],Light production ensued upon mixing
same,time to maximum chemiluminescence intensity,"[2]; 100 μL reagent, 0.01M tris pH 8.0, 5×10^-5 M acridan, 3.5×10^-16 moles HRP, 25° C.",7 min
